From PMC9104950, “Stereoselective Covalent Adduct Formation of Acyl Glucuronide Metabolite of Nonsteroidal Anti-Inflammatory Drugs with UDP-Glucuronosyltransferase” (International Journal of Molecular Sciences, 2022)

Tests used:
[1] = tested on: proteins of Cyt (cytosolic fraction of liver homogenate); assay: Covalent adduct formation of NSAIDs-AG with proteins of cytosolic fraction (Cyt); format: binding, rat; conditions: 180 μM, 1 mg/mL, 6 h
[2] = tested on: proteins of Mit (mitochondrial fraction of liver homogenate); assay: Covalent adduct formation of NSAIDs-AG with proteins of mitochondrial fraction (Mit); format: binding, rat; conditions: 180 μM, 1 mg/mL, 6 h
[3] = tested on: proteins of Nuc (nuclear fraction of liver homogenate); assay: Covalent adduct formation of NSAIDs-AG with proteins of nuclear fraction (Nuc); format: binding, rat; conditions: 180 μM, 1 mg/mL, 6 h
UGT1A1 = molecular target: T1, UGT1A1 (Homo sapiens, UniProt P22309); assay: Covalent adduct formation of NSAIDs-AG with UGT1A1; format: binding; conditions: R vs S diastereomer; 180 μM, UGT 3.4 μM, 6 h
T1 construct: purchased Corning, Inc
T1 sequence (P22309 26-533): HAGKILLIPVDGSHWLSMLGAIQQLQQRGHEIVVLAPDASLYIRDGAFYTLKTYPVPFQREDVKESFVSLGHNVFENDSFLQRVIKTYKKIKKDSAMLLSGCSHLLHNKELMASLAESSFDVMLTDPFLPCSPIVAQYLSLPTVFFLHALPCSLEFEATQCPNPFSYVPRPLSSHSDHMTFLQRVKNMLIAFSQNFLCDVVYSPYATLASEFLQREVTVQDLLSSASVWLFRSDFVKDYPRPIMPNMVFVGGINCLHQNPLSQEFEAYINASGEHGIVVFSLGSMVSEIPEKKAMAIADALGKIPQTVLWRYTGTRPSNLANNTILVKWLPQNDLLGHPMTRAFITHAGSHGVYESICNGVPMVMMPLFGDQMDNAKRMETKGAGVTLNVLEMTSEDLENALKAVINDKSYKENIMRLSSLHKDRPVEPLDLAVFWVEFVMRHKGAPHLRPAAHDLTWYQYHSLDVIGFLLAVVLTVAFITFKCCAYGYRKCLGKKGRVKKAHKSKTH
Method: The concentrations of UGT were set at 3.4 μM by the preliminary experiments on the linearity of covalent adduct formation. The covalent adduct formation of NSAIDs-AG with organelle proteins and UGT was determined according to previous reports on NSAIDs-AG with albumin with some modifications. After a deproteinization of the reaction mixture, methanol/diethyl ether (3:1) was added to the pellet. […] The concentrations of the parent NSAIDs were measured using liquid chromatography-tandem mass spectrometry (LC-MS/MS). Aliquots of 10 μL were injected into the LC-MS/MS system. The LC-MS/MS equipment consisted of an LC system (UltiMate 3000 series, Thermo Fisher Scientific, Inc.) and TSQ Endura Triple Quadrupole Mass Spectrometer with electrospray ionization (Thermo Fisher Scientific, Inc.). Finnigan Xcalibur software (Thermo Fisher Scientific, Inc.) was used for data recording and analysis. Analysis was further performed using a reversed-phase column (COSMOSIL 5C18-MSII, 2.0 mm × 150 mm, 5 μm; Nacalai Tesque, Inc.). The column temperature was set to 40 °C, and the autosampler was maintained at 10 °C. The mobile phase (A; 30% methanol in 8.5 mM ammonium formate and 0.0075% formic acid, and B; 90% methanol in 8.5 mM ammonium formate and 0.0075% formic acid) was pumped at a flow rate of 0.2 mL/min. The initial mobile phase composition was maintained at 30% mobile phase B for 1 min, changed linearly to 90% mobile phase B from 1 to 8 min, maintained for 1 min, returned to 30% mobile phase B from 9 to 10 min, and maintained for 1 min for chromatographic column equilibrium. The MS scan was operated in positive ionization mode for DIC, MEF, ZOM, KET, and NAP, or negative ionization mode, for FLU. […] The concentrations of NSAIDs were determined from a single-point calibration in every assay for NSAIDs after confirmation of linearity between area and concentrations of NSAIDs.

UGT2B4 = molecular target: T2, UGT2B4 (Homo sapiens, UniProt P06133); assay: Covalent adduct formation of NSAIDs-AG with UGT2B4; format: binding; conditions: 180 μM, UGT 3.4 μM, 6 h
T2 construct: purchased Corning, Inc
T2 sequence (P06133 24-528): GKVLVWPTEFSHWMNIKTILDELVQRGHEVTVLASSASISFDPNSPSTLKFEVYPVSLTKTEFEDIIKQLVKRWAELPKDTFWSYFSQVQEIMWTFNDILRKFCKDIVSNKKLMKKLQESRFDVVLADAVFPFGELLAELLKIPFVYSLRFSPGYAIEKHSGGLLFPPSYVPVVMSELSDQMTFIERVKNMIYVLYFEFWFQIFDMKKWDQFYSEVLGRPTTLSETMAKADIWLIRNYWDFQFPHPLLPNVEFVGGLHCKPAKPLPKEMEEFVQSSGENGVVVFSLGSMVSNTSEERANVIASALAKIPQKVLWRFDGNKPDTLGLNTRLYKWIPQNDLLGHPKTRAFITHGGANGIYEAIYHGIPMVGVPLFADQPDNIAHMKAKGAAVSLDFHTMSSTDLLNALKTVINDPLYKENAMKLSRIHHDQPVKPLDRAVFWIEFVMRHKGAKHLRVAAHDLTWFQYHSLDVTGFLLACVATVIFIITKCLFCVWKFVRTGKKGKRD
Method: (§1) The concentrations of UGT were set at 3.4 μM by the preliminary experiments on the linearity of covalent adduct formation. The covalent adduct formation of NSAIDs-AG with organelle proteins and UGT was determined according to previous reports on NSAIDs-AG with albumin with some modifications. After a deproteinization of the reaction mixture, methanol/diethyl ether (3:1) was added to the pellet. […] The concentrations of the parent NSAIDs were measured using liquid chromatography-tandem mass spectrometry (LC-MS/MS). Aliquots of 10 μL were injected into the LC-MS/MS system. The LC-MS/MS equipment consisted of an LC system (UltiMate 3000 series, Thermo Fisher Scientific, Inc.) and TSQ Endura Triple Quadrupole Mass Spectrometer with electrospray ionization (Thermo Fisher Scientific, Inc.). Finnigan Xcalibur software (Thermo Fisher Scientific, Inc.) was used for data recording and analysis. Analysis was further performed using a reversed-phase column (COSMOSIL 5C18-MSII, 2.0 mm × 150 mm, 5 μm; Nacalai Tesque, Inc.). The column temperature was set to 40 °C, and the autosampler was maintained at 10 °C. The mobile phase (A; 30% methanol in 8.5 mM ammonium formate and 0.0075% formic acid, and B; 90% methanol in 8.5 mM ammonium formate and 0.0075% formic acid) was pumped at a flow rate of 0.2 mL/min. The initial mobile phase composition was maintained at 30% mobile phase B for 1 min, changed linearly to 90% mobile phase B from 1 to 8 min, maintained for 1 min, returned to 30% mobile phase B from 9 to 10 min, and maintained for 1 min for chromatographic column equilibrium. The MS scan was operated in positive ionization mode for DIC, MEF, ZOM, KET, and NAP, or negative ionization mode, for FLU. The conditions for electrospray ionization were set at 3500 V spray voltage for positive ionization mode and 2500 V spray voltage for negative ionization mode at 400 °C capillary temperature, and 300 °C vaporizer temperature with 40 arbitrary units of nitrogen sheath gas and 10 arbitrary units of auxiliary gas. The MS scan was operated in the positive or negative ionization mode. The selected reaction monitoring (SRM) mode was used, with argon as the collision gas at 1.5 mTorr. The mass resolution was set at 0.7 full-width at half-height (unit resolution). SRM transitions (precursor and product ions) were mass to charge ratios of (m/z) 296 > 214 for DIC (positive ionization mode), 294 > 250 for DIC (negative ionization mode), 242 > 224 for MEF, 292 > 139 for ZOM, 243 > 198 for R- and S-FLU, 255 > 209 for R- and S-KET, 231 > 185 for R- and S-NAP, and 302 > 220 for DIC-d4. The collision energies were 15 V for DIC (negative ionization mode), ZOM, MEF, FLU, KET, and NAP; 35 V for DIC (positive ionization mode); and DIC-d4. The concentrations of NSAIDs were determined from a single-point calibration in every assay for NSAIDs after confirmation of linearity between area and concentrations of NSAIDs.

UGT2B7 = molecular target: T3, UGT2B7 (Homo sapiens, UniProt P16662); assay: Covalent adduct formation of NSAIDs-AG with UGT2B7; format: binding; conditions: 180 μM, UGT 3.4 μM, 6 h
T3 construct: purchased Corning, Inc
T3 sequence (P16662 24-529): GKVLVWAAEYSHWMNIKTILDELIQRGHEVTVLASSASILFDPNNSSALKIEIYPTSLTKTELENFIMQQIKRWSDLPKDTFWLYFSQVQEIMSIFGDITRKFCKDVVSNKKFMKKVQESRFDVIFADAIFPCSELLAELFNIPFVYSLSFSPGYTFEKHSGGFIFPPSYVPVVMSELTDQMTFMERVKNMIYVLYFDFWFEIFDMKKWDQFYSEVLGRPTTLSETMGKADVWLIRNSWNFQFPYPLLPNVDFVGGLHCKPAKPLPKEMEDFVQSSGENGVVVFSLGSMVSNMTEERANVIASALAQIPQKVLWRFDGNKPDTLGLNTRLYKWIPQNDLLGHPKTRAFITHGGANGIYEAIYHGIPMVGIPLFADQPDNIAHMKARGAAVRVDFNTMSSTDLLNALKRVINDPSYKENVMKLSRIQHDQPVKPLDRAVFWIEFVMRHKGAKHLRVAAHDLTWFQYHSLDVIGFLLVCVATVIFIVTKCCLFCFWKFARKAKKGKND
Method: as §1

[4] = parameters: method as in PMID 1642643; conditions: plasma at physiological pH and temperature; cited from earlier work
[5] = parameters: method as in PMID 9571227; conditions: cited from earlier work

- amount of covalent adducts with Cyt proteins compared with the other diastereomer (S-KET-AG) [1]: higher amounts of covalent adducts
- amount of covalent adducts with Mit proteins compared with the other diastereomer (S-KET-AG) [2]: higher amounts of covalent adducts
- amount of covalent adducts with Nuc proteins compared with the other diastereomer (S-KET-AG) [3]: higher amounts of covalent adducts
- covalent adduct formation with UGT1A1 compared with the other diastereomer (UGT1A1): significantly more covalent adducts
- covalent adduct formation with UGT2B4 compared with the other diastereomer (UGT2B4; R vs S diastereomer): significantly more covalent adducts
- covalent adduct formation with UGT2B7 compared with the other diastereomer (UGT2B7; R vs S diastereomer): significantly more covalent adducts
Compound: CC(C(=O)OC1OC(C(=O)O)C(O)C(O)C1O)c1cccc(C(=O)c2ccccc2)c1 (stereo not shown) [R-KET-AG]
- amounts of covalent adducts with UGT2B (UGT2B4) relative to UGT1A isoforms (UGT2B4): relatively higher amounts of covalent adducts
- amounts of covalent adducts with UGT2B (UGT2B7) relative to UGT1A isoforms (UGT2B7): relatively higher amounts of covalent adducts
- hydrolysis half-life in plasma compared with S-KET-AG [4]: shorter
- acyl migration rate compared with S-KET-AG [5]: higher acyl migration rate
